Patent US8193203B2, “Bicyclic compounds having activity at the CXCR4 receptor” (Allergan, Inc., priority 2008, dated 2012)

Target: T1, human CXCR4 receptor (Homo sapiens, UniProt P61073)
T1 construct: expressed in transfected cells
Test: Measurement of intracellular Ca+2 responses (FLIPR), antagonism of the SDF-1α response
Format: cell-based
Settings: for IC50: HEK-Gqi5 cells stably expressing human CXCR4, Fluo-4 FLIPR, antagonism of SDF-1α 1.9 nM (EC65); for CXCR4 (% Inh): percent antagonism of SDF-1α 1.9 nM (EC65) response, HEK-Gqi5 human CXCR4 cells, value in brackets
Procedure: Measurement of Intracellular Ca^+2 Responses for CXCR4 Compounds
HEK-Gqi5 cells stably expressing the human CXCR4 receptor were utilized for these studies. The growth media for the CXCR4 receptor expressing cell line was DMEM high glucose medium supplemented with 10% fetal bovine serum (FBS), 1% antibiotic-antimycotic, 50 ug/ml hygromycin B, and 400 μg/ml geneticin. Ten thousand cells per well were plated into 384-well poly-D-lysine coated plates one day prior to use. On the day of the experiment, the cells were washed twice with Hank's Balanced Salt Solution supplemented with 20 mM hepes (HBSS/hepes buffer). The cells were then dye loaded with 2 uM Fluo-4 diluted in the HBSS/Hepes buffer and incubated at 37° C. for 40 minutes. Extracellular dye was removed by washing the cell plates four times prior to placing the plates in the FLIPR (Fluorometric Imaging Plate Reader, Molecular Devices). Ligands were diluted in HBSS/Hepes buffer and prepared in 384-well microplates. The positive control, stromal-cell derived factor-1 (SDF-1α), was diluted in HBSS/Hepes buffer with 4 mg/ml fatty acid free bovine serum albumin. Two drug additions were made by the FLIPR. The first drug addition was the test drug in concentrations ranging from 2.44 nM to 40,000 nM. After this addition, fluorescent measurements were taken. Any calcium release in response to this drug addition represents agonist activity of the compounds. The second drug addition was SDF-1α at a final concentration of 1.9 nM (EC65). Fluorescence measurements were also taken after this second drug addition and were used to determine the ability of the test compounds to antagonize the SDF-1α response. Results were expressed as EC50 and efficacy values, as well as IC50 and percent antagonism values. As controls, SDF-1α (CXCR4 agonist) and AMD3100 (CXCR4 antagonist) dose-response curves were also determined in each study.

T1 sequence (P61073 whole entry): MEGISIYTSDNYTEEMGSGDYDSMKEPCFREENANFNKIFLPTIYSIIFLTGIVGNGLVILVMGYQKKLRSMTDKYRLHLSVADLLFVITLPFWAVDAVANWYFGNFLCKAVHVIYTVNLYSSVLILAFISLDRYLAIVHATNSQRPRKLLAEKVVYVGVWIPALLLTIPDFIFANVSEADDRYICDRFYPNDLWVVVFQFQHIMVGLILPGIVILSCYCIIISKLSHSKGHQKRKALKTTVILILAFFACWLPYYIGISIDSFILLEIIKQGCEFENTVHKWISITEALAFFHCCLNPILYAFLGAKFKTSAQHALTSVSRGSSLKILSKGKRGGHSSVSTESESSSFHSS

Compound | IC50 (values in nM) [nM] | CXCR4 (% Inh) [%] | IC50 (values given in μM) [nM]
CCN(CC)CCNc1nc(NC2CCN(Cc3ccccc3N(C)C)CC2)c2ccccc2n1 [Compound 36, N2-(2-(Diethylamino)ethyl)-N4-(1-(2-(dimethylamino)benzyl)piperidin-4-yl)quinazoline-2,4-diamine] | 800 | 90 | 
COc1cccc(N(C)C)c1CN1CCC(Nc2nc(NCC[C@@H]3CCCN3)nc3ccccc23)CC1 [Compound 115, (S)—N-4-(1-(2-(Dimethylamino)-6-methoxybenzyl)piperidin-4-yl)-N2-(2-(pyrrolidin-2-yl)ethyl)quinazoline-2,4-diamine] | 234 | 95 | 
CCNCCNc1nc(NC2CCN(Cc3c(OC)cccc3N(C)C)CC2)c2ccccc2n1 [Compound 105, N4-(1-(2-(Dimethylamino)-6-methoxybenzyl)piperidin-4-yl)-N2-(2-(ethylamino)ethyl)quinazoline-2,4-diamine] | 771 | 98 | 
COc1cccc(N(C)C)c1CN1CCC(Nc2nc(NCC(C)(C)CN(C)C)nc3ccccc23)CC1 [Compound 96, N2-(3-(Dimethylamino)-2,2-dimethylpropyl)-N4-(1-(2-(dimethylamino)-6-methoxybenzyl)piperidin-4-yl)quinazoline-2,4-diamine] | 240 | 100 | 
COc1cccc(N(C)C)c1CN1CCC(Nc2nc(NCC3CCN(C(=O)OC(C)(C)C)C3)nc3ccccc23)CC1 (stereo not shown) [Compound 106, tert-Butyl 3-((4-(1-(2-(Dimethylamino)-6-methoxybenzyl)piperidin-4-ylamino)quinazolin-2-ylamino)methyl)pyrrolidine-1-carboxylate] |  | 73 | 2300
N˜4˜-(1-{2-(Dimethylamino)-6-[2-(dimethylamino)ethoxy]benzyl}piperidin-4-yl)-6,7-dimethoxy-N2(1H-1,2,4-triazol-5-ylmethyl)quinazoline-2,4-diamine [Compound 211] | 25 | 98 | 
COc1cccc(N(C)C)c1CN1CCC(Nc2nc(NCC[C@H]3CCCN3)nc3ccccc23)CC1 [Compound 117, (R)—N-4-(1-(2-(Dimethylamino)-6-methoxybenzyl)piperidin-4-yl)-N2-(2-(pyrrolidin-2-yl)ethyl)quinazoline-2,4-diamine] | 319 | 95 | 
COCCCNc1nc(NC2CCN(Cc3c(OC)cccc3N(C)C)CC2)c2ccccc2n1 [Compound 87, N4-(1-(2-(Dimethylamino)-6-methoxybenzyl)piperidin-4-yl)-N2-(3-methoxypropyl)quinazoline-2,4-diamine] | 810 | 96 | 
CCN(CC)CCCNc1nc(NC2CCN(Cc3cccc4ccn(C)c34)CC2)c2ccccc2n1 [Compound 133, N2-(3-(Diethylamino)propyl)-N4-(1-((1-methyl-1H-indol-7-yl)methyl)piperidin-4-yl)quinazoline-2,4-diamine] |  | 63 | 2200
CNCC1CN(c2nc(NC3CCN(Cc4c(OC)cccc4N(C)C)CC3)c3ccccc3n2)C1 [Compound 104, N-(1-(2-(Dimethylamino)-6-methoxybenzyl)piperidin-4-yl)-2-(3-((methylamino)methyl)azetidin-1-yl)quinazolin-4-amine] |  | 97 | 1000
CCOP(=O)(CCCNc1nc(NC2CCN(Cc3c(OC)cccc3N(C)C)CC2)c2ccccc2n1)OCC [Compound 81, Diethyl 3-(4-(1-(2-(Dimethylamino)-6-methoxybenzyl)piperidin-4-ylamino)quinazolin-2-ylamino)propylphosphonate] |  | 99 | 1600
COc1cccc(N(C)C)c1CN1CCC(Nc2nc(NCC3CN(C(=O)OC(C)(C)C)C3)nc3ccccc23)CC1 [Compound 108, tert-Butyl 3-((4-(1-(2-(Dimethylamino)-6-methoxybenzyl)piperidin-4-ylamino)quinazolin-2-ylamino)methyl)azetidine-1-carboxylate] |  | 89 | 2000
COc1cc2nc(NCCc3nccs3)nc(NC3CCN(Cc4c(OCCN(C)C)cccc4N(C)C)CC3)c2cc1OC [Compound 209, N˜4˜-(1-{2-(Dimethylamino)-6-[2-(dimethylamino)ethoxy]benzyl}piperidin-4-yl)-6,7-dimethoxy-N˜2˜-[2-(1,3-thiazol-2-yl)ethyl]quinazoline-2,4-diamine] | 47 | 92 | 

Now from value to compound:

IC50 (values in nM) [nM] | CXCR4 (% Inh) [%] | IC50 (values given in μM) [nM] | Compound
45 | 94 |  | CCN(CC)CCOc1cccc(N(C)C)c1CN1CCC(Nc2nc(NCCN(C)C)nc3cc(OC)c(OC)cc23)CC1 [Compound 189, N˜4˜-(1-{2-[2-(Diethylamino)ethoxy]-6-(dimethylamino)benzyl}piperidin-4-yl)-N˜2˜-[2-(dimethylamino)ethyl]-6,7-dimethoxyquinazoline-2,4-diamine]
268 | 97 |  | COc1cccc(N(C)C)c1CN1CCC(Nc2nc(NCCN)nc3ccccc23)CC1 [Compound 125, N2-(2-Aminoethyl)-N4-(1-(2-(dimethylamino)-6-methoxybenzyl)piperidin-4-yl)quinazoline-2,4-diamine]
47 | 92 |  | COc1cc2nc(NCc3ncco3)nc(NC3CCN(Cc4c(OCCN(C)C)cccc4N(C)C)CC3)c2cc1OC [Compound 204, N˜4˜-(1-{2-(Dimethylamino)-6-[2-(dimethylamino)ethoxy]benzyl}piperidin-4-yl)-6,7-dimethoxy-N2(1,3-oxazol-2-ylmethyl)quinazoline-2,4-diamine]
 | 93 | 4900 | COc1cccc(N(C)C)c1CN1CCC(Nc2nc(N3CCCC(C(N)=O)C3)nc3ccccc23)CC1 (stereo not shown) [Compound 85, 1-(4-(1-(2-(Dimethylamino)-6-methoxybenzyl)piperidin-4-ylamino)quinazolin-2-yl)piperidine-3-carboxamide]
270 | 100 |  | CCN(CC)CCCNc1nc(NC2CCN(Cc3ccccc3N(C)C)CC2)c2cc(OC)c(OC)cc2n1 [Compound 30, N2-(3-(Diethylamino)propyl)-N4-(1-(2-(dimethylamino)benzyl)piperidin-4-yl)-6,7-dimethoxyquinazoline-2,4-diamine]
84 | 96 |  | COc1cc2nc(NC[C@@H]3CCNC3)nc(NC3CCN(Cc4c(OCCN(C)C)cccc4N(C)C)CC3)c2cc1OC [Compound 123, (R)—N-4-(1-(2-(Dimethylamino)-6-(2-(dimethylamino)ethoxy)benzyl)piperidin-4-yl)-6,7-dimethoxy-N2-(pyrrolidin-3-ylmethyl)quinazoline-2,4-diamine]
 | 92 | 1900 | N˜4˜-{1-[2-(Dimethylamino)-6-methoxybenzyl]pyrrolidin-3-yl}-N˜2˜-[3-(dimethylamino)propyl]-6,7-dimethoxyquinazoline-2,4-diamine [Compound 161]
34 | 85 |  | COc1cc2nc(NCc3cncs3)nc(NC3CCN(Cc4c(OCCN(C)C)cccc4N(C)C)CC3)c2cc1OC [Compound 197, N˜4˜-(1-{2-(Dimethylamino)-6-[2-(dimethylamino)ethoxy]benzyl}piperidin-4-yl)-6,7-dimethoxy-N˜2˜-(1,3-thiazol-5-ylmethyl)quinazoline-2,4-diamine]
129 | 99 |  | COc1cccc(N(C)C)c1CN1CCC(Nc2nc(NC[C@@H]3CCNC3)nc3ccccc23)CC1 [Compound 113, (R)—N-4-(1-(2-(Dimethylamino)-6-methoxybenzyl)piperidin-4-yl)-N2-(pyrrolidin-3-ylmethyl)quinazoline-2,4-diamine]
38 | 95 |  | COc1cc2nc(NCC(O)CN)nc(NC3CCN(Cc4c(OCCN(C)C)cccc4N(C)C)CC3)c2cc1OC (stereo not shown) [Compound 196, 1-Amino-3-({4-[(1-{2-(dimethylamino)-6-[2-(dimethylamino)ethoxy]benzyl}piperidin-4-yl)amino]-6,7-dimethoxyquinazolin-2-yl}amino)propan-2-ol]
617 | 93 |  | COc1cc2nc(NCCCN3CCCC3)nc(NC3CCN(Cc4ccccc4N(C)C)CC3)c2cc1OC [Compound 33]
 | 84 | 1200 | COc1cccc(N(C)C)c1CN1CCC(Nc2nc(N3CCN(C)CC3)nc3ccccc23)CC1 [Compound 218, N-(1-(2-(Dimethylamino)-6-methoxybenzyl)piperidin-4-yl)-2-(4-methyl-piperazin-1-yl)quinazolin-4-amine]
 | 92 | 1400 | COc1cccc(N(C)C)c1CN1CCC(Nc2nc(NCCCN3CCCC3=O)nc3ccccc23)CC1 [Compound 89, 1-(3-(4-(1-(2-(Dimethylamino)-6-methoxybenzyl)piperidin-4-ylamino)quinazolin-2-ylamino)propyl)pyrrolidin-2-one]
